# Experimental data as given in PMC4291083, “Ex Vivo Characterization of a Novel Iodine-123-Labelled Aminomethylchroman as a Potential Agonist Ligand for SPECT Imaging of Dopamine D2/3 Receptors” (International Journal of Molecular Imaging, 2014).
# Marks after values point to notes of the source that are not given here.
# Assay: Biodistribution studies in rats
# Format: in vivo, Wistar rats
# Details: male rats
# Description: [^123I]-1 (SA ≥ 37 MBq/nmol) was received after radiolabelling in an isotonic acetate (9% EtOH) buffer (pH 4.8). The solution was passed through a membrane filter (0.2 μm) and was diluted to the proper concentrations. Male Wistar rats (approximately 250 g body weight, obtained from Harlan/Charles River, Zeist, Netherlands) received an intravenous injection in the tail vein of approximately 3.7 MBq/0.4 mL buffer of [^123I]-1 under O2/CO2 anaesthesia. Distribution to the tissue was measured 15 min, 30 min, and 1, 2, 3, 4, and 24 h after the injection to determine the time course of uptake in several organs, including the brain. Four rats were killed at each time point via bleeding by heart puncture (to minimize contribution of blood activity) under O2/CO2 anaesthesia followed by cervical dislocation. Brain regions (cerebellum, frontal and prefrontal cortex, olfactory bulbs, pituitary, medulla with pons, midbrain, striatum, hypothalamus, hippocampus, and thalamus) and various peripheral tissues (heart, lung, liver, spleen, kidney, muscle, fat, and thymus) were quickly excised and weighted. The activity of [^123I] was assayed in a gamma counter, and data was corrected for decay and the amount of radioactivity was presented as percentage of the injected dose, multiplied by the body weight in kilograms, per gram tissue or blood. Selective uptake in the striatum was determined by calculating the ratio of radioactivity in the striatum in relation to that in the cerebellum, since the density of dopamine D2/3 receptor is negligible in this brain area in rats.
smiles,measurement,setting,value
Oc1ccc2c(c1)O[C@@H](CNCc1ccc([123I])cc1)CC2 [[^123I]-1],"123I radioactivity, Fat",3 h after i.v. injection,0.337 ± 0.065 %ID × kg/g
same,"123I radioactivity, Fat",4 h after i.v. injection,0.174 ± 0.056 %ID × kg/g
same,"123I radioactivity, Fat",24 h after i.v. injection,0.016 ± 0.005 %ID × kg/g
same,"123I radioactivity, Frontal cortex",15 min after i.v. injection,2.567 ± 1.933 %ID × kg/g
same,"123I radioactivity, Frontal cortex",30 min after i.v. injection,2.329 ± 0.904 %ID × kg/g
same,"123I radioactivity, Frontal cortex",1 h after i.v. injection,0.722 ± 0.061 %ID × kg/g
same,"123I radioactivity, Frontal cortex",2 h after i.v. injection,0.223 ± 0.028 %ID × kg/g
same,"123I radioactivity, Frontal cortex",3 h after i.v. injection,0.232 ± 0.095 %ID × kg/g
same,"123I radioactivity, Frontal cortex",4 h after i.v. injection,0.109 ± 0.057 %ID × kg/g
same,"123I radioactivity, Frontal cortex",24 h after i.v. injection,0.024 ± 0.002 %ID × kg/g
same,"123I radioactivity, Hippocampus",15 min after i.v. injection,0.826 ± 0.475 %ID × kg/g
same,"123I radioactivity, Hippocampus",30 min after i.v. injection,2.155 ± 0.675 %ID × kg/g
same,"123I radioactivity, Hippocampus",1 h after i.v. injection,0.866 ± 0.089 %ID × kg/g
same,"123I radioactivity, Hippocampus",2 h after i.v. injection,0.255 ± 0.040 %ID × kg/g
same,"123I radioactivity, Hippocampus",3 h after i.v. injection,0.230 ± 0.085 %ID × kg/g
same,"123I radioactivity, Hippocampus",4 h after i.v. injection,0.093 ± 0.059 %ID × kg/g
same,"123I radioactivity, Hippocampus",24 h after i.v. injection,0.014 ± 0.001 %ID × kg/g
same,"123I radioactivity, Hypothalamus",15 min after i.v. injection,1.335 ± 0.766 %ID × kg/g
same,"123I radioactivity, Hypothalamus",30 min after i.v. injection,1.699 ± 0.526 %ID × kg/g
same,"123I radioactivity, Hypothalamus",1 h after i.v. injection,0.747 ± 0.111 %ID × kg/g
same,"123I radioactivity, Hypothalamus",2 h after i.v. injection,0.218 ± 0.036 %ID × kg/g
same,"123I radioactivity, Hypothalamus",3 h after i.v. injection,0.233 ± 0.070 %ID × kg/g
same,"123I radioactivity, Hypothalamus",4 h after i.v. injection,0.114 ± 0.051 %ID × kg/g
same,"123I radioactivity, Hypothalamus",24 h after i.v. injection,0.027 ± 0.005 %ID × kg/g
same,"123I radioactivity, Kidney",15 min after i.v. injection,1.618 ± 0.774 %ID × kg/g
same,"123I radioactivity, Kidney",30 min after i.v. injection,1.735 ± 0.353 %ID × kg/g
same,"123I radioactivity, Kidney",1 h after i.v. injection,1.770 ± 0.302 %ID × kg/g
same,"123I radioactivity, Kidney",2 h after i.v. injection,1.081 ± 0.154 %ID × kg/g
same,"123I radioactivity, Kidney",3 h after i.v. injection,1.336 ± 0.175 %ID × kg/g
same,"123I radioactivity, Kidney",4 h after i.v. injection,1.005 ± 0.397 %ID × kg/g
same,"123I radioactivity, Kidney",24 h after i.v. injection,0.150 ± 0.026 %ID × kg/g
same,"123I radioactivity, Midbrain",15 min after i.v. injection,3.566 ± 4.660 %ID × kg/g
same,"123I radioactivity, Midbrain",30 min after i.v. injection,1.715 ± 0.577 %ID × kg/g
same,"123I radioactivity, Midbrain",1 h after i.v. injection,0.754 ± 0.040 %ID × kg/g
same,"123I radioactivity, Midbrain",2 h after i.v. injection,0.229 ± 0.046 %ID × kg/g
same,"123I radioactivity, Midbrain",3 h after i.v. injection,0.214 ± 0.062 %ID × kg/g
same,"123I radioactivity, Midbrain",4 h after i.v. injection,0.098 ± 0.059 %ID × kg/g
same,"123I radioactivity, Midbrain",24 h after i.v. injection,0.020 ± 0.003 %ID × kg/g
same,"123I radioactivity, Muscle",15 min after i.v. injection,0.412 ± 0.466 %ID × kg/g
same,"123I radioactivity, Muscle",30 min after i.v. injection,0.363 ± 0.049 %ID × kg/g
same,"123I radioactivity, Olfactory b.",15 min after i.v. injection,0.445 ± 0.439 %ID × kg/g
same,"123I radioactivity, Olfactory b.",30 min after i.v. injection,1.325 ± 0.402 %ID × kg/g
same,"123I radioactivity, Olfactory b.",1 h after i.v. injection,0.631 ± 0.036 %ID × kg/g
same,"123I radioactivity, Olfactory b.",2 h after i.v. injection,0.218 ± 0.025 %ID × kg/g
same,"123I radioactivity, Olfactory b.",3 h after i.v. injection,0.234 ± 0.087 %ID × kg/g
same,"123I radioactivity, Olfactory b.",4 h after i.v. injection,0.112 ± 0.043 %ID × kg/g
same,"123I radioactivity, Olfactory b.",24 h after i.v. injection,0.020 ± 0.001 %ID × kg/g
same,"123I radioactivity, Pituitary","15 min after i.v. injection, only 1 sample",1.401^* %ID × kg/g
same,"123I radioactivity, Pituitary",30 min after i.v. injection,3.367 ± 1.033 %ID × kg/g
same,"123I radioactivity, Pituitary",1 h after i.v. injection,1.561 ± 0.538 %ID × kg/g
same,"123I radioactivity, Pituitary",2 h after i.v. injection,0.918 ± 0.632 %ID × kg/g
same,"123I radioactivity, Pituitary",3 h after i.v. injection,0.548 ± 0.149 %ID × kg/g
same,"123I radioactivity, Pituitary",4 h after i.v. injection,0.307 ± 0.056 %ID × kg/g
same,"123I radioactivity, Pituitary",24 h after i.v. injection,0.082 ± 0.006 %ID × kg/g
same,"123I radioactivity, Pons/medulla",15 min after i.v. injection,1.188 ± 0.587 %ID × kg/g
same,"123I radioactivity, Pons/medulla",30 min after i.v. injection,1.486 ± 0.274 %ID × kg/g
same,"123I radioactivity, Pons/medulla",1 h after i.v. injection,0.761 ± 0.040 %ID × kg/g
same,"123I radioactivity, Pons/medulla",2 h after i.v. injection,0.237 ± 0.045 %ID × kg/g
same,"123I radioactivity, Pons/medulla",3 h after i.v. injection,0.229 ± 0.066 %ID × kg/g
same,"123I radioactivity, Pons/medulla",4 h after i.v. injection,0.106 ± 0.057 %ID × kg/g
same,"123I radioactivity, Pons/medulla",24 h after i.v. injection,0.017 ± 0.001 %ID × kg/g
same,"123I radioactivity, Spleen",15 min after i.v. injection,2.428 ± 1.971 %ID × kg/g
same,"123I radioactivity, Spleen",30 min after i.v. injection,1.270 ± 0.282 %ID × kg/g
same,"123I radioactivity, Spleen",1 h after i.v. injection,0.749 ± 0.093 %ID × kg/g
same,"123I radioactivity, Spleen",2 h after i.v. injection,0.266 ± 0.047 %ID × kg/g
same,"123I radioactivity, Spleen",3 h after i.v. injection,0.284 ± 0.092 %ID × kg/g
same,"123I radioactivity, Spleen",4 h after i.v. injection,0.166 ± 0.087 %ID × kg/g
same,"123I radioactivity, Spleen",24 h after i.v. injection,0.022 ± 0.003 %ID × kg/g
same,"123I radioactivity, Striatum",15 min after i.v. injection,1.231 ± 1.299 %ID × kg/g
same,"123I radioactivity, Striatum",30 min after i.v. injection,1.947 ± 0.666 %ID × kg/g
same,"123I radioactivity, Striatum",1 h after i.v. injection,0.779 ± 0.037 %ID × kg/g
same,"123I radioactivity, Striatum",2 h after i.v. injection,0.226 ± 0.034 %ID × kg/g
same,"123I radioactivity, Striatum",3 h after i.v. injection,0.232 ± 0.065 %ID × kg/g
same,"123I radioactivity, Striatum",4 h after i.v. injection,0.101 ± 0.051 %ID × kg/g
same,"123I radioactivity, Striatum",24 h after i.v. injection,0.027 ± 0.010 %ID × kg/g
same,"123I radioactivity, Thalamus",15 min after i.v. injection,1.556 ± 1.015 %ID × kg/g
same,"123I radioactivity, Thalamus",30 min after i.v. injection,1.978 ± 0.618 %ID × kg/g
same,"123I radioactivity, Thalamus",1 h after i.v. injection,0.779 ± 0.049 %ID × kg/g
same,"123I radioactivity, Thalamus",2 h after i.v. injection,0.234 ± 0.037 %ID × kg/g
same,"123I radioactivity, Thalamus",3 h after i.v. injection,0.279 ± 0.091 %ID × kg/g
same,"123I radioactivity, Thalamus",4 h after i.v. injection,0.114 ± 0.047 %ID × kg/g
same,"123I radioactivity, Thalamus",24 h after i.v. injection,0.033 ± 0.006 %ID × kg/g
